Reference: patent US5840485A, “Topologically segregated, encoded solid phase libraries” (priority 1994, dated 1998)
Entries after “also recorded” stand apart in the source; their conditions may differ. Read-outs that look alike come from different tables or passages of the source.

What was measured:
chymotrypsin = assay: Chymotrypsin cleavage of bead-bound substrates; format: biochemical; conditions: for cleavage by chymotrypsin (substrate quality) / decrease in the total amount of peptide on bead after chymotrypsin: bead-bound peptide
Protocol: (§1) Beads were carefully washed and transferred to 0.1M ammonium carbonate buffer of pH 7.7. Chymotrypsin (1 mg) was added and suspension was shaken at 37° C. for 20 hours. The same treatment was repeated twice for 4 hours.
Resin was washed and transferred to the 0.1M ammonium carbonate buffer pH 7.7. Chymotrypsin treatment was performed in the same way as described above.
A simple substrate for chymotrypsin, Boc-Phe, was synthesized on all available amino groups of the solid carrier.

streptavidin [1] = target: T1, streptavidin (Streptomyces avidinii, UniProt P22629); assay: Screening of encoded peptide library XXXX-Lys(XXXX)-Lys(ZZ) on beads; format: binding; conditions: Table 3, two cycles of Edman degradation
T1 sequence (P22629 25-183): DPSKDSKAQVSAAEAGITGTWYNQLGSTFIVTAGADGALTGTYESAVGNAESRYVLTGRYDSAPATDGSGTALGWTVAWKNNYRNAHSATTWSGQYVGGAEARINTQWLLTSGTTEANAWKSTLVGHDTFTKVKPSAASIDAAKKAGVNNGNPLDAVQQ
Protocol: The peptide library was screened according to published procedures (Lam and Lebl, 1992, Immunomethods 1: 11-15). The peptide beads were first mixed with double-distilled water to remove the DMF. After extensive washing with PBS (137 mM NaCl, 2.7 mM KCl, 4.3 mM Na2 HPO4, 1.4 mM KH2 PO4, pH 7.2), the beads were coated with 0.05% gelatin (w/v) to block any nonspecific binding. The beads were then incubated with a 1:100,000 dilution of streptavidin-alkaline phosphatase at 2 mg/ml (Pierce; Rockford, Ill.) in 2× PBS/Tween/gelatin (2× PBS, 0.1% Tween-20 (v/v), and 0.05% gelatin (w/v)). The beads were then thoroughly washed with TBS (137 mM NaCl, 2.7 mM KCl, 25 mM Tris base, pH 7.4) and the standard substrate 5-bromo-4-chloro-3-indolyl phosphate was added. The beads, together with the substrate, were then transferred to petri dishes for color development. After 30 minutes to 1 hour, the colored beads were collected, with the aid of a micropipette, washed with 6M guanidine hydrochloride, pH 1.0, and subjected to sequencing as described.
This library was used in the screening against two model targets, anti-β-endorphin monoclonal antibody, and streptavidin. […]

streptavidin [2] = target: T1, streptavidin; conditions: for activity with streptavidin after chymotrypsin: in words
Protocol: as §1
(§2) Beads were carefully washed and prepared for staining with anti-β-endorphin as described previously.
(§3) Treated beads were tested for binding to anti-β-endorphin and streptavidin.

[3] = test system: anti-β-endorphin antibody; assay: Antibody detection of model test compounds on non-sequentially coded beads; format: binding; conditions: test compound on bead surface, coding molecule inside
From the text: The test compound sequences prepared were Tyr-Gly-Ala-Phe SEQ ID NO:12 and Phe-Gly-Ala-Phe SEQ ID NO:13, coded by doublets of amino acids (see Scheme XIC), and Tyr-Gly-Gly-Phe-Leu SEQ ID NO:14 and Phe(Cl)-Gly-Gly-Phe-Leu SEQ ID NO:15 (encoded by coding by Scheme XIB). […] Moreover, the fidelity and coding could be confirmed by directly sequencing the test peptides.
Therefore, the synthesis was not performed in successive steps of coupling test AA subunit followed by a pair of coding subunits, but rather using the more convenient scheme described below. […] The mixture of amino acids coding for phenylalanine in position four of the test compound structure (Boc-Sar and Boc-Asp(OBzl) in a molar ratio of 1:1 (reflecting their relatively equivalent coupling reactivity which had previously been determined experimentally) was coupled using DIC and HOBT (3 eq each). The reaction was monitored by bromophenol blue method. The resin was washed by DMF (5×) and the Dde group was deprotected by 2% hydrazine hydrate in DMF (10 min). The resin was washed by DMF (5×), 2% HOBT in DMF, and Fmoc-Lys(Dde) was coupled, and Fmoc group removed. The procedure of coupling mixtures of Boc amino acids and Fmoc-Lys(Dde) was repeated two times (coupling the coding subunit mixtures of Ile and Val (2:1) and Lys(ClZ) and Glu(OBzl) (1.5:1)) and after deprotection of the Dde group, Boc-Lys(Fmoc) was coupled to the resin in both syringes. […]

[4] = test system: anti-β-endorphin monoclonal antibody (clone 3-E 7); assay: Screening of encoded peptide library XXXX-Lys(XXXX)-Lys(ZZ) on beads; format: binding; conditions: Table 3, two cycles of Edman degradation
Protocol: After thorough washing, streptavidin-alkaline phosphatase was added. One hour later, the beads were washed, substrate was added, and color development proceeded as described above. The color beads were then physically isolated and subjected to sequencing. In these two experiments, only the darkest beads were sequenced.

[5] = test system: anti-β-endorphin antibody; assay: Binding to peptide beads (staining) with or without chymotrypsin treatment / surface synthesis
Protocol: as §1, §2, §3

anti-β-endorphin = assay: Semi-quantitative staining of peptide-beads blocked with polyglutamic acid, biotinyl-anti-β-endorphin followed by streptavidin-AP; format: binding
Protocol: TentaGel amide AM resin (0.3 meq/gram substitution) was hydrated in H2 O for several hours, and washed with 0.1M 2-[N-morpholino]ethanesulfonic acid (MES) buffer, pH 5.7. A varying amount (0 to 10 mg) of polyglutamic acid (Mr 30,000, Sigma Chemical) was added to each of the 0.2 ml of settled bead. Sixty mg of 1-ethyl-3-(3-dimethylamino-propyl) carbodiimide-HCl (EDC) was then added to each tube. The reaction mixtures were rocked gently overnight. The beads were then washed into double distilled (dd) H2 O and 0.24 mmol ethanolamine plus 60 mg EDC in MES buffer were added to each sample. After 4 hours of gentle shaking, the resin was washed extensively with dd H2 O. The resin was then lyophilized to dryness. The treated resin was swollen in dimethylformamide (DMF). Using Fmoc chemistry, the peptide, […] SEQ ID NO:11 was synthesized on each of the treated resin samples using standard techniques. The N-terminal Fmoc group and the side chain protected groups were removed with piperidine and trifluoracetic acid as described (Lam et al., 1991, Nature 354: 82-84).

[6] = two-peptide beads, surface deprotected by chymotrypsin

In the case of `CC(C)(C)OC(=O)N[C@@H](Cc1ccccc1)C(=O)O` [Boc-Phe], the “release of Boc-Phe by chymotrypsin” value (chymotrypsin; Boc-Phe on all available amino groups of carrier, various conditions) is reported as roughly 1.1%.

With “HPQF: test peptide sequence deduced from positive beads of the encoded library” the “Target of positive bead, deduced sequence” value (shortened to “Target of positive bead”) (streptavidin [1]) was “streptavidin positive”.

For “LHFQF: LHFQF SEQ ID NO:10 was a poor substrate for chymotrypsin”, the “cleavage by chymotrypsin (substrate quality)” value (chymotrypsin) was “poor substrate”.

In the case of LHPQF, the “reaction with streptavidin of beads with YGGFL on surface and LHPQF inside” value (streptavidin [2]; [6]) is reported as “positive reaction; also recorded: still available for interaction with streptavidin”.

For LHPQFYG, the “cleavage by chymotrypsin (substrate quality)” value (chymotrypsin) was “proceeded efficiently”, the “decrease in the total amount of peptide on bead after chymotrypsin” value (chymotrypsin) was “minimal” and the “activity with streptavidin after chymotrypsin” value (streptavidin [2]) was “completely abrogated”. The “activity with streptavidin after chymotrypsin” value (streptavidin [2]; listed as LHPQF-YG) was “completely lost activity”.

With Phe-Gly-Ala-Phe (FGAF) the “detection by anti-β-endorphin antibody” value [3] was “negative control”.

Tyr-Gly-Ala-Phe (YGAF) was tested, and the “detection by anti-β-endorphin antibody” value [3] was “positive” and the “detection by anti-β-endorphin antibody” value ([3]; listed as Tyr-Gly-Ala-Phe) was “can be detected”.

“YGGF: test peptide sequence deduced from positive beads of the encoded library” was tested, and the “Target of positive bead” value [4] was “anti-β-endorphin”.

In the case of YGGFL, the “binding activity to anti-β-endorphin antibody after chymotrypsin” value ([5]; after chymotrypsin, in words) is reported as “completely lost binding activity”, the “staining / reaction with anti-β-endorphin of beads with YGGFL on surface and second peptide inside” value [5, 6] is reported as “indistinguishable from staining of the beads containing only YGGFL sequence; also recorded: positive reaction; also recorded: available on the surface of the bead for the interaction with the relevant acceptor” and the “decrease in the total amount of peptide on bead after chymotrypsin” value (chymotrypsin) is reported as “minimal”.

With “YGGFLGGG [peptide synthesized on polyglutamic acid treated resin]” the “staining of polyglutamic acid-blocked resin” value (anti-β-endorphin; blocked resin, in words) was “stained only weakly” and the “Labeling with biotinyl-anti-β-endorphin followed by streptavidin-AP” value (anti-β-endorphin; polyglutamic acid 10 mg per 0.2 ml resin) was “trace”.

For “YGPF: test peptide sequence deduced from positive beads of the encoded library”, the “Target of positive bead” value [4] was “anti-β-endorphin”.
